Assay results as given in patent publication US4005103A, “Pyrrolidine derivatives” (priority 1973, dated 1977).
Like-named read-outs stand apart in the source and are kept apart here.

How the values were obtained:
[1] = Potentiation of amphetamine: stereotypies in rats after d-amphetamine sulphate; type: in vivo; settings: 30 min before 5 mg/kg d-amphetamine sulphate i.p., over 3 hours, maximum 24
Method: 1. POTENTIATION OF AMPHETAMINE
The test compound is administered intraperitoneally to rats 30 minutes before the intraperitoneal injection of 5 mg/kg of d-amphetamine sulphate. The intensity of the stereotypies over a period of 3 hours is assessed by attributing a number from 0 to 4. Table I indicates the sum of the assessments as a function of the doses administered. The maximum assessment is 24.

[2] = Anorexigenic activity in dogs; type: in vivo, Beagle dogs; settings: Canis lupus familiaris, read-out: percentage inhibition of consuming food
Method: 2. ANOREXIGENIC ACTIVITY IN DOGS
Beagle dogs are conditioned to take their food over the course of 5 minutes once per day. The test compound is administered orally in the form of a single dose of 10 mg/kg one hour before the food is presented. The amount of food ingested is measured at regular intervals.
Table II gives the percentage inhibition of consuming food as a function of the time after treatment.

[3] = Beagle dogs, 10 mg/kg oral, 1 hr after treatment
[4] = Beagle dogs, 10 mg/kg oral, 2 hrs after treatment
[5] = Beagle dogs, 10 mg/kg oral, 4 hrs after treatment
[6] = Beagle dogs, 10 mg/kg oral, 24 hrs after treatment

CC1(C)NC(C2CC2)CC1c1ccccc1.Cl (stereo not shown) [Example XXI, 2-cyclopropyl-4-phenyl-5,5-dimethylpyrrolidine hydrochloride]
sum of the assessments of intensity of stereotypies ([1]; 4 mg/kg intraperitoneal): 10 | sum of the assessments of intensity of stereotypies ([1]; 8 mg/kg intraperitoneal): 11 | sum of the assessments of intensity of stereotypies ([1]; 16 mg/kg intraperitoneal): 13 | inhibition in vivo at 10 mg/kg ([2]; po, 1 h): 100% | inhibition in vivo at 10 mg/kg ([2]; po, 2 h): 100% | inhibition in vivo at 10 mg/kg ([2]; po, 4 h): 70% | inhibition in vivo at 10 mg/kg ([2]; po, 24 h): 0%

CC1NC(C2CC2)CC1c1ccccc1.Cl (stereo not shown) [Example XXII, 2-cyclopropyl-4-phenyl-5-methyl-pyrrolidine hydrochloride]
sum of the assessments of intensity of stereotypies ([1]; 1 mg/kg intraperitoneal): 8 | sum of the assessments of intensity of stereotypies ([1]; 4 mg/kg intraperitoneal): 9 | sum of the assessments of intensity of stereotypies ([1]; 16 mg/kg intraperitoneal): 12 | inhibition in vivo at 10 mg/kg ([2]; po, 1 h): 50% | inhibition in vivo at 10 mg/kg ([2]; po, 2 h): 50% | inhibition in vivo at 10 mg/kg ([2]; po, 4 h): 0%

CC1(C)NC(C2CC2)CC1c1ccc(Cl)cc1.Cl (stereo not shown) [Example XXIII, 2-cyclopropyl-4-(p-chlorophenyl)-5,5-dimethyl-pyrrolidine hydrochloride]
sum of the assessments of intensity of stereotypies ([1]; 2 mg/kg intraperitoneal): 12 | sum of the assessments of intensity of stereotypies ([1]; 8 mg/kg intraperitoneal): 18 | sum of the assessments of intensity of stereotypies ([1]; 32 mg/kg intraperitoneal): 17 | inhibition in vivo at 10 mg/kg [2, 3]: 100% | inhibition in vivo at 10 mg/kg [2, 4]: 100% | inhibition in vivo at 10 mg/kg [2, 5]: 100% | inhibition in vivo at 10 mg/kg [2, 6]: 50%

CC1(C)NC(C2CC2)CC1c1cccc(C(F)(F)F)c1.Cl (stereo not shown) [Example XXX, 2-cyclopropyl-4-(m-trifluoromethylphenyl)-5,5-dimethylpyrrolidine hydrochl oride]
sum of the assessments of intensity of stereotypies ([1]; 1 mg/kg intraperitoneal): 20 | sum of the assessments of intensity of stereotypies ([1]; 4 mg/kg intraperitoneal): 24 | sum of the assessments of intensity of stereotypies ([1]; 16 mg/kg intraperitoneal): 24 | inhibition in vivo at 10 mg/kg [2, 3]: 0% | inhibition in vivo at 10 mg/kg [2, 4]: 0%

C#CCN1C(C)C(c2ccc(Cl)c(Cl)c2)CC1C1CC1.Cl (stereo not shown) [Example XXXV, N-propargyl-2-cyclopropyl-4-(3',4'-dichlorophenyl)-5-methylpyrrolidine hydrochloride]
sum of the assessments of intensity of stereotypies ([1]; 1 mg/kg intraperitoneal): 18 | sum of the assessments of intensity of stereotypies ([1]; 4 mg/kg intraperitoneal): 23 | sum of the assessments of intensity of stereotypies ([1]; 16 mg/kg intraperitoneal): 23 | inhibition in vivo at 10 mg/kg ([2]; po, 1 h): 60% | inhibition in vivo at 10 mg/kg ([2]; po, 2 h): 60% | inhibition in vivo at 10 mg/kg ([2]; po, 4 h): 60% | inhibition in vivo at 10 mg/kg ([2]; po, 24 h): 0%

CC1NC(C2CC2)CC1c1cccc(C(F)(F)F)c1.Cl (stereo not shown) [XXIX, 2-cyclopropyl-4-(m-trifluoromethylphenyl)-5-methyl-pyrrolidine hydrochloride]
sum of the assessments of intensity of stereotypies ([1]; 1 mg/kg intraperitoneal): 17 | sum of the assessments of intensity of stereotypies ([1]; 4 mg/kg intraperitoneal): 22 | sum of the assessments of intensity of stereotypies ([1]; 16 mg/kg intraperitoneal): 16 | inhibition in vivo at 10 mg/kg [2, 3]: 0% | inhibition in vivo at 10 mg/kg [2, 4]: 0%

CC1NC(C2CC2)CC1c1cccc(Cl)c1.Cl (stereo not shown) [XXV, 2-cyclopropyl-4-(m-chlorophenyl)-5-methylpyrrolidine hydrochloride]
sum of the assessments of intensity of stereotypies ([1]; 0.5 mg/kg intraperitoneal): 13 | sum of the assessments of intensity of stereotypies ([1]; 2 mg/kg intraperitoneal): 18 | sum of the assessments of intensity of stereotypies ([1]; 8 mg/kg intraperitoneal): 23 | inhibition in vivo at 10 mg/kg [2, 3]: 50% | inhibition in vivo at 10 mg/kg [2, 4]: 50% | inhibition in vivo at 10 mg/kg [2, 5]: 50% | inhibition in vivo at 10 mg/kg [2, 6]: 0%

CC1(C)NC(C2CC2)CC1c1cccc(Cl)c1.Cl (stereo not shown) [XXVI, 2-cyclopropyl-4-(m-chlorophenyl)-5,5-dimethylpyrrolidine hydrochloride]
sum of the assessments of intensity of stereotypies ([1]; 1 mg/kg intraperitoneal): 12 | sum of the assessments of intensity of stereotypies ([1]; 4 mg/kg intraperitoneal): 14 | sum of the assessments of intensity of stereotypies ([1]; 16 mg/kg intraperitoneal): 19 | inhibition in vivo at 10 mg/kg [2, 3]: 60% | inhibition in vivo at 10 mg/kg [2, 4]: 60% | inhibition in vivo at 10 mg/kg [2, 5]: 60% | inhibition in vivo at 10 mg/kg [2, 6]: 0%

CC1(C)NC(C2CC2)CC1c1cccc(F)c1.Cl (stereo not shown) [XXVIII, 2-cyclopropyl-4-(m-fluorophenyl)-5,5-dimethylpyrrolidine hydrochloride]
sum of the assessments of intensity of stereotypies ([1]; 1 mg/kg intraperitoneal): 16 | sum of the assessments of intensity of stereotypies ([1]; 4 mg/kg intraperitoneal): 17 | sum of the assessments of intensity of stereotypies ([1]; 16 mg/kg intraperitoneal): 16 | inhibition in vivo at 10 mg/kg [2, 3]: 100% | inhibition in vivo at 10 mg/kg [2, 4]: 100% | inhibition in vivo at 10 mg/kg [2, 5]: 100% | inhibition in vivo at 10 mg/kg [2, 6]: 0%
